# Entries after “also recorded” stand apart in the source; their conditions may differ. Where no end group is shown, it is not given here.
# Target: Complement component C5 (Homo sapiens, UniProt P01031)
# Experiment: Biacore SPR single-cycle kinetics of isolated knob domain peptides binding to C5
# Method: For knob domain peptides, flow cells were activated using a standard immobilisation protocol: EDC/NHS was mixed at 1:1 ratio (flow rate, 10 μL/min; contact time, 30 s). C5, at 1 μg/mL in pH 4.5 sodium-acetate buffer, was immobilized on flow cell 2 only (flow rate, 10 μL/min; contact time, 420 s). Finally, ethanolamine was applied to both flow cells (flow rate, 10 μL/min; contact time, 420 s). A final immobilization level of approximately 1,500–2,000 response units was obtained for peptide samples. For the PGT121-K149 fusion protein and K149 knob domain, the same immobilisation protocols were used but with a 750 ng/mL solution of C5, instead of 1 μg/mL.
# One-micromolar stock solutions of the analytes (PGT121 knob domain fusion proteins and free knob domain peptides) were prepared in HBS-EP buffer. A series of six 3-fold dilutions of each stock solution was prepared in the same buffer. The result was 7 solutions for each analyte, at concentrations ranging from 1 μM down to 1.37 nM. A high flow rate of 40 μL/min was used, with a contact time of 230 s and a dissociation time of 1,800 s for knob domain peptides and 10,000 s for PGT121 knob domain fusion proteins. For the PGT121-K149 fusion protein and K149 knob domain, the flow rate was further increased to 100 μL/min. Binding to the reference surface was subtracted, and the data were fitted to a single-site binding model using Biacore evaluation software. Data were inspected for evidence of mass transport limitation using the flow-rate–independent component of the mass transfer constant (tc).
# Sequence of Complement component C5 (P01031 19-673 limits assumed): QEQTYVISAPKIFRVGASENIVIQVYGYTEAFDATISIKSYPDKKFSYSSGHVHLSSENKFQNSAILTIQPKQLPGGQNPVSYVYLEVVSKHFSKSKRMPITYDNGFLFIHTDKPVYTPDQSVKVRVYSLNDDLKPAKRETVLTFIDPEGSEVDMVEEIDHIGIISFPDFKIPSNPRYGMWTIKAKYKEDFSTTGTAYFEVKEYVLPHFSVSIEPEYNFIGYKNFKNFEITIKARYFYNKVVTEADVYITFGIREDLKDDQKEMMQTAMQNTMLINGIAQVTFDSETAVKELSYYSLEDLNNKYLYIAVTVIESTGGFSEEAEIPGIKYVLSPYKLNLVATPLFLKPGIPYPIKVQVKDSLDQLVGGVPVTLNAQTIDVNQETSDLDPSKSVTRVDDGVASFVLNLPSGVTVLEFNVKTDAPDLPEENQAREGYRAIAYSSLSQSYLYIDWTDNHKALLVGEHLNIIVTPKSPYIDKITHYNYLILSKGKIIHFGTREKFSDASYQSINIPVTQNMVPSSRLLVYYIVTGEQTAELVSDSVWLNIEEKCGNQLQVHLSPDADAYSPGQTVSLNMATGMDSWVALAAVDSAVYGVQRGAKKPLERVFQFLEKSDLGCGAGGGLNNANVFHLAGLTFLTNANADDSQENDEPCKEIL
# Sequence of Complement component C5 (P01031 678-1676 limits assumed): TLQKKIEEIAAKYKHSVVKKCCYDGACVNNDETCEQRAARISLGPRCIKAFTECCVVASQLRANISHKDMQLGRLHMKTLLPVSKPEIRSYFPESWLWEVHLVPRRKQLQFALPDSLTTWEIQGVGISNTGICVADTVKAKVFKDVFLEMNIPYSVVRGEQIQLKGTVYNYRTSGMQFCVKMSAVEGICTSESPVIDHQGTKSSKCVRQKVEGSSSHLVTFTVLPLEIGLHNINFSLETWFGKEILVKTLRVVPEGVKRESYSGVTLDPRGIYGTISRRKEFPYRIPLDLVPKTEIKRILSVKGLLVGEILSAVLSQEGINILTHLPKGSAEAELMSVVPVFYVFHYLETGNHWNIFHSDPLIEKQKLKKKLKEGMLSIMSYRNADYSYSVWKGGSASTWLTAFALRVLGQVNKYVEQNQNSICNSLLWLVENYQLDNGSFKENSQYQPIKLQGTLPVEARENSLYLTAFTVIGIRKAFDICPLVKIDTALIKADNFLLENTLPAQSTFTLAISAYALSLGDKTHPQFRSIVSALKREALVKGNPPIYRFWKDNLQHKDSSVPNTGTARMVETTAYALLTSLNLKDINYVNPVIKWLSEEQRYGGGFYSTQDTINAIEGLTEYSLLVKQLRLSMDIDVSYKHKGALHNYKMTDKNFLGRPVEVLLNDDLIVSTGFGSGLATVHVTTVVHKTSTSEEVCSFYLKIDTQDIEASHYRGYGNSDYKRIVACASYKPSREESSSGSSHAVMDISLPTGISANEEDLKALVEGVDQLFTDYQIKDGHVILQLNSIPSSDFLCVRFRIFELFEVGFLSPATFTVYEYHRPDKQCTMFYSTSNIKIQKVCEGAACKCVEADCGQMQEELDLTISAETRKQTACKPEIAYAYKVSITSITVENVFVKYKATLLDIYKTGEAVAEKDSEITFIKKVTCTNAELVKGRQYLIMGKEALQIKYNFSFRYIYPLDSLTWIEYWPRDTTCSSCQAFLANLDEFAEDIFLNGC
sequence,measurement,setting,value
"GKSCREGYIDGGGCCLPGSCRGCACSYYDWLKCPRDCRGTSEEENLYFQ (also: bicyclic or more (positions not given here)) [K60, isolated bovine knob domain peptide, TEV-excised from PGT121 Fab]",mean KD,"SPR single-cycle kinetics, 1:1 model, mean of 3 experiments (Fig 6)",not to bind; also recorded: Non-binding
same,Mean Stoichiometric ratio at 1 µM,"SPR, analyte 1 µM, mean of n=3 occasions",<0.1
same,Stoichiometric ratio at 1 µM,occasion n=1,<0.1
same,Stoichiometric ratio at 1 µM,occasion n=2,<0.1
same,Stoichiometric ratio at 1 µM,occasion n=3,<0.1
